Measured values as given in publication PMC6298923, “P2Y2 and P2Y6 receptor activation elicits intracellular calcium responses in human adipose-derived mesenchymal stromal cells” (Purinergic Signalling, 2018).

Key:
P2Y2 receptor = molecular target: T1, P2Y2 receptor (Homo sapiens, UniProt P41231); assay: Fura-2 intracellular calcium, FlexStation, native AD-MSCs; assay type: cell-based; conditions: agonist; peak calcium response; […] °C, pH […] extracellular Ca2+; receptor assigned by antagonist
T1 construct: gene P2RY2; native endogenous receptor in primary human adipose-derived mesenchymal stromal cells (female donors)
Text: Fura-2 intracellular calcium, FlexStation, native AD-MSCs on P2Y2 receptor

P2Y6 receptor = molecular target: T2, P2Y6 receptor (Homo sapiens, UniProt Q15077); conditions: antagonist against […] ADP; peak magnitude; cells do not respond to UDP up to […]; […] °C, pH […]
T2 construct: gene P2RY6
T2 sequence (Q15077 whole entry): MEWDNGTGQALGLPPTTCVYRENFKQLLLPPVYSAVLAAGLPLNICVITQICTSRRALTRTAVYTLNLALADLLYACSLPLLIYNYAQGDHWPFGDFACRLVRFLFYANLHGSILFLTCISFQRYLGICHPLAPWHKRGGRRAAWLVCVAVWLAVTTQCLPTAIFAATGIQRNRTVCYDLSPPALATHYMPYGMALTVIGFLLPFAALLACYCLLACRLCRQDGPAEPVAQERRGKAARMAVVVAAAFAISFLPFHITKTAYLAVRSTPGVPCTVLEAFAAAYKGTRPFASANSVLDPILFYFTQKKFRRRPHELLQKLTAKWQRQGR

T1 sequence (P41231 whole entry): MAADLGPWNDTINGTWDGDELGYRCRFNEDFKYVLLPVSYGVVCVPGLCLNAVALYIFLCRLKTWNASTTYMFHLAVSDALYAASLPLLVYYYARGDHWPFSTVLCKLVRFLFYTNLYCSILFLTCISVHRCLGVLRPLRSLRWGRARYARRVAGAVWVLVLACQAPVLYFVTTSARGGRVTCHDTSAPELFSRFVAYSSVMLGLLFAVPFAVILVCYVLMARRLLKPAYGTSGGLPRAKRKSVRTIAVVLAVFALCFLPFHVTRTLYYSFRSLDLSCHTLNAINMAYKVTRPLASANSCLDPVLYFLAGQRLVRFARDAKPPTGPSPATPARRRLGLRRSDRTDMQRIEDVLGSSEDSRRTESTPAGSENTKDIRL

EC50 (P2Y2 receptor) [nM] | SMILES | IC50 (P2Y6 receptor) [nM]
2240 ± 1100 | Nc1ncnc2c1ncn2[C@@H]1O[C@H](COP(=O)(O)OP(=O)(O)OP(=O)(O)O)[C@@H](O)[C@H]1O [ATP] | –
– | S=C=Nc1cccc(NC(=S)NCCCCNC(=S)Nc2cccc(N=C=S)c2)c1 [MRS2578] | 437 ± 133
3240 ± 2800 | O=c1ccn([C@@H]2O[C@H](COP(=O)(O)OP(=O)(O)OP(=O)(O)O)[C@@H](O)[C@H]2O)c(=O)[nH]1 [UTP] | –
